Experimental data published in ChEMBL document CHEMBL4184283, “High expression of class III β-tubulin has no impact on functional cancer cell growth inhibition of a series of key vinblastine analogs” (Bioorg Med Chem Lett, 2018).
Each block holds one molecule with its values, some of them ahead of it.

Experiments:
[1] = Growth inhibition of human A549-T24 cells over-expressing class-3 beta-tubulin; type: functional
[2] = test system: L1210; assay: Growth inhibition of mouse L1210 cells after 72 hrs by phosphatase assay; type: functional, cell-based; conditions: L1210, 72 h
[3] = test system: HCT-116/VM46; assay: Growth inhibition of human HCT116/VM46 cells over-expressing P-gp after 72 hrs by phosphatase assay; type: functional, cell-based; conditions: HCT-116/VM46, 72 h
[4] = test system: A549; assay: Growth inhibition of human A549 cells; type: functional, cell-based
[5] = Selectivity ratio of IC50 for human A549-T24 cells over-expressing class-3 beta-tubulin to IC50 for human A549 cells; type: functional
[6] = test system: HCT-116; assay: Growth inhibition of human HCT116 cells after 72 hrs by phosphatase assay; type: functional, cell-based; conditions: HCT-116, 72 h
[7] = Selectivity ratio of IC50 for human HCT116/VM46 cells over-expressing P-gp to IC50 for human HCT116 cells; type: functional

Compound: CC[C@]1(NC(=O)N2Cc3ccc(NC(=O)c4cnccn4)cc3C2)C[C@H]2CN(CCc3c([nH]c4ccc(F)cc34)[C@@](C(=O)OC)(c3cc4c(cc3OC)N(C)[C@H]3[C@@](O)(C(=O)OC)[C@H](OC(C)=O)[C@]5(CC)C=CCN6CC[C@]43[C@@H]65)C2)C1
IC50 [1]: 0.09 nM
IC50 [2]: 0.06 nM
IC50 [3]: 0.83 nM
IC50 [4]: 0.19 nM
Ratio IC50 [5]: <1
IC50 [6]: 0.07 nM
Ratio IC50 [7]: 12

Compound: CC[C@]1(NC(=O)c2ccc(C)c(C)c2)C[C@H]2CN(CCc3c([nH]c4ccc(F)cc34)[C@@](C(=O)OC)(c3cc4c(cc3OC)N(C)[C@H]3[C@@](O)(C(=O)OC)[C@H](OC(C)=O)[C@]5(CC)C=CCN6CC[C@]43[C@@H]65)C2)C1
IC50 [1]: 2.5 nM
IC50 [2]: 3 nM
IC50 [3]: 7.6 nM
IC50 [4]: 5 nM
Ratio IC50 [5]: <1
IC50 [6]: 4.5 nM
Ratio IC50 [7]: 1.7

Compound: CC[C@]1(O)C[C@H]2CN(CCc3c([nH]c4ccc(F)cc34)[C@@](C(=O)OC)(c3cc4c(cc3OC)N(C)[C@H]3[C@@](O)(C(=O)OC)[C@H](OC(C)=O)[C@]5(CC)C=CCN6CC[C@]43[C@@H]65)C2)C1
IC50 [1]: 0.8 nM
IC50 [4]: 2.9 nM
Ratio IC50 [5]: <1
Ratio IC50 [7]: 100

Compound: CC[C@]1(NC(=O)c2ccc3c(c2)CCCC3)C[C@H]2CN(CCc3c([nH]c4ccc(F)cc34)[C@@](C(=O)OC)(c3cc4c(cc3OC)N(C)[C@H]3[C@@](O)(C(=O)OC)[C@H](OC(C)=O)[C@]5(CC)C=CCN6CC[C@]43[C@@H]65)C2)C1
IC50 [1]: 6.5 nM
IC50 [2]: 3 nM
IC50 [3]: 8.7 nM
IC50 [4]: 7.6 nM
Ratio IC50 [5]: <1
IC50 [6]: 4.9 nM
Ratio IC50 [7]: 1.8

Compound: CC[C@]1(NC(=O)N2Cc3ccccc3C2)C[C@H]2CN(CCc3c([nH]c4ccc(F)cc34)[C@@](C(=O)OC)(c3cc4c(cc3OC)N(C)[C@H]3[C@@](O)(C(=O)OC)[C@H](OC(C)=O)[C@]5(CC)C=CCN6CC[C@]43[C@@H]65)C2)C1
IC50 [1]: 0.7 nM
IC50 [2]: 0.5 nM
IC50 [3]: 7.5 nM
IC50 [4]: 0.7 nM
Ratio IC50 [5]: 1
IC50 [6]: 0.6 nM
Ratio IC50 [7]: 12

Compound: CC[C@]1(NC(=O)c2ccc3c(c2)CCCO3)C[C@H]2CN(CCc3c([nH]c4ccc(F)cc34)[C@@](C(=O)OC)(c3cc4c(cc3OC)N(C)[C@H]3[C@@](O)(C(=O)OC)[C@H](OC(C)=O)[C@]5(CC)C=CCN6CC[C@]43[C@@H]65)C2)C1
IC50 [1]: 0.8 nM
IC50 [2]: 0.4 nM
IC50 [3]: 1.8 nM
IC50 [4]: 1.4 nM
Ratio IC50 [5]: <1
IC50 [6]: 0.5 nM
Ratio IC50 [7]: 3.8

Compound: CC[C@]1(NC(=O)N2Cc3ccc(NC(=O)c4cccnn4)cc3C2)C[C@H]2CN(CCc3c([nH]c4ccc(F)cc34)[C@@](C(=O)OC)(c3cc4c(cc3OC)N(C)[C@H]3[C@@](O)(C(=O)OC)[C@H](OC(C)=O)[C@]5(CC)C=CCN6CC[C@]43[C@@H]65)C2)C1
IC50 [1]: 0.26 nM
IC50 [2]: 0.06 nM
IC50 [3]: 0.87 nM
IC50 [4]: 0.53 nM
Ratio IC50 [5]: <1
IC50 [6]: 0.07 nM
Ratio IC50 [7]: 12

Continued by falling IC50 [4], values first:

IC50 [4]: 7.7 nM
Compound: CC[C@]1(O)C[C@@H]2CN(CCc3c([nH]c4ccccc34)[C@@](C(=O)OC)(c3cc4c(cc3OC)N(C)[C@H]3[C@@](O)(C(=O)OC)[C@H](OC(C)=O)[C@]5(CC)C=CCN6CC[C@]43[C@@H]65)C2)C1 [VINBLASTINE]
IC50 [1]: 6.7 nM
Ratio IC50 [5]: <1

IC50 [3]: > 200 nM
IC50 [4]: 7.1 nM
Compound: CC(=O)O[C@H]1C(=O)[C@@]2(C)[C@H]([C@H](OC(=O)c3ccccc3)[C@]3(O)C[C@H](OC(=O)[C@H](O)[C@@H](NC(=O)c4ccccc4)c4ccccc4)C(C)=C1C3(C)C)[C@]1(OC(C)=O)CO[C@@H]1C[C@@H]2O [PACLITAXEL]
IC50 [1]: 70 nM
Ratio IC50 [5]: 10
Ratio IC50 [7]: >50

IC50 [2]: 0.06 nM
IC50 [3]: 0.88 nM
IC50 [4]: 0.17 nM
IC50 [6]: 0.07 nM
Compound: CC[C@]1(NC(=O)N2Cc3ccc(NC(=O)c4ccncn4)cc3C2)C[C@H]2CN(CCc3c([nH]c4ccc(F)cc34)[C@@](C(=O)OC)(c3cc4c(cc3OC)N(C)[C@H]3[C@@](O)(C(=O)OC)[C@H](OC(C)=O)[C@]5(CC)C=CCN6CC[C@]43[C@@H]65)C2)C1
IC50 [1]: 0.13 nM
Ratio IC50 [5]: <1
Ratio IC50 [7]: 13
